Test results: ChEMBL document CHEMBL1154587, “Discovery of novel sphingosine kinase 1 inhibitors” (Bioorg Med Chem Lett, 2009)
pIC50: −log10 of the molar value. The source made the active and inactive calls. The rule behind the calls is not given here.

Legend:
Sphingosine kinase 1 = Sphingosine kinase 1 (Homo sapiens, UniProt Q9NYA1); assay: Inhibition of human sphingosine kinase 1 by off chip mobility shift assay
[1] = molecular target: T1, Sphingosine kinase 2 (Homo sapiens) (UniProt Q9NRA0); assay: Inhibition of sphingosine kinase 2 at 10 uM
T1 sequence (whole entry): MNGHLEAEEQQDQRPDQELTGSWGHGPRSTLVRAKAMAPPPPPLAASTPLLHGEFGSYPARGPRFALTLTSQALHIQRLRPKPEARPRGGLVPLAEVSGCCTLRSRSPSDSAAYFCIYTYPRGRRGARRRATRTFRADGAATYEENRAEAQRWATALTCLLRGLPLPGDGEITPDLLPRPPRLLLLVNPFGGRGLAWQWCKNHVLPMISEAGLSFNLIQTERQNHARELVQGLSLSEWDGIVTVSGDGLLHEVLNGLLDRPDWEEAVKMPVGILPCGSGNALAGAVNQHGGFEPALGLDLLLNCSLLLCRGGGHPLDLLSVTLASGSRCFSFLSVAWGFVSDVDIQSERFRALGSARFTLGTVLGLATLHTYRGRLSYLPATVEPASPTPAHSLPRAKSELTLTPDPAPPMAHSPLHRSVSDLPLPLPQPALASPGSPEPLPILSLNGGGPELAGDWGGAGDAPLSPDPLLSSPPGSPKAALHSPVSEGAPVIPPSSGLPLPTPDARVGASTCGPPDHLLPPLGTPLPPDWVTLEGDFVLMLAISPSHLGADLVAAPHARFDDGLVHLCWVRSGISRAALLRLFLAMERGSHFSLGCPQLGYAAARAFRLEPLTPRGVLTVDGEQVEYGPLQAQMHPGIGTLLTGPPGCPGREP

Chain of Sphingosine kinase 1 (Q9NYA1 whole entry): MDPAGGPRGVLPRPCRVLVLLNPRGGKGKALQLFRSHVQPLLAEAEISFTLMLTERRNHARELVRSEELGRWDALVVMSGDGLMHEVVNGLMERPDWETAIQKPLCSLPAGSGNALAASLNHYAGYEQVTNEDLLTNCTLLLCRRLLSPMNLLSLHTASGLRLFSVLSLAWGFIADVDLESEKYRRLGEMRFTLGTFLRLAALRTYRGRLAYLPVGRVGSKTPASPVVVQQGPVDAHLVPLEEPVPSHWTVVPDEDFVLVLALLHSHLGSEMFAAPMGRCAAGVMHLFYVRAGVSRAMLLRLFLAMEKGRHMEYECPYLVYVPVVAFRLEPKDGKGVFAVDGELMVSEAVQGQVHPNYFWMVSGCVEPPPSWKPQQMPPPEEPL

Row | SMILES | pIC50 (Sphingosine kinase 1) | inhibition [1]
1 | CCCCCCCCc1ccc(CCNC(=O)[C@H]2NCC[C@@H]2O)cc1 | 5.21 | inactive
2 | CCCCCCCCc1ccc(NCC(N)CCO)cc1 (configuration not stated) | < 5.00 | inactive
3 | CCCCCCCCc1ccc(NC(=O)C(N)CCO)cc1 (racemic) |  | inactive
4 | CCCCCCCCc1ccc(CNC(=O)C(N)CO)cc1 (racemic) | < 5.00 | inactive
5 | CCCCCCCCc1ccc(NC(=O)[C@@H](N)[C@@H](C)O)cc1 | 6.19 | inactive
6 | CCCCCCCCc1ccc(CNC(=O)[C@H]2NCC[C@@H]2O)cc1 | 6.37 | inactive
7 | CCCCCCCCc1ccc(NC(=O)C(N)C(C)(C)O)cc1 (racemic) | 5.68 | inactive
8 | CCCCCCCCc1ccc(NC(=O)[C@@H](N)CCO)cc1 |  | inactive
9 | CCCCCCCCc1ccc(NC[C@H]2NCC[C@@H]2O)cc1 |  | inactive
10 | CCCCCCCCc1ccc(CNC(=O)C(N)CCO)cc1 (racemic) |  | inactive
11 | CCCCCCCCc1ccc(NC(=O)[C@H](N)CCO)cc1 |  | inactive
12 | CCCCCCCCc1ccc(NC(=O)[C@@H](N)CCCCO)cc1 |  | inactive
13 | CCCCCCCCc1ccc(NC(=O)[C@@H](N)CO)cc1 |  | inactive
14 | CCCCCCCCc1ccc(NC(=O)[C@H]2NCC[C@H]2O)cc1 |  | inactive
15 | CCCCCCCCc1ccc(NC(=O)[C@@H](N)COC)cc1 | < 5.00 | inactive
16 | CCCCCCCCc1ccc(NC(=O)[C@@H](N)[C@H](C)O)cc1 |  | inactive
17 | CCCCCCCCc1ccc(NC(=O)[C@H](N)[C@H](C)O)cc1 |  | inactive
18 | CCCCCCCCc1ccc(NC(=O)[C@H]2NC[C@@H](O)[C@@H]2O)cc1 | 5.08 | inactive
19 | CCCCCCCCc1ccc(NC(=O)[C@H](N)CO)cc1 |  | inactive
20 | CCCCCCCCc1ccc(NC(=O)C(N)CCCO)cc1 (racemic) | < 5.00 | inactive
21 | CCCCCCCCc1ccc(NC(=O)[C@H]2NCC[C@@H]2O)cc1 |  | inactive
22 | CCCCCCCCc1ccc(NC(=O)[C@H](N)[C@@H](C)O)cc1 |  | inactive
23 | CCCCCCCCc1ccc(NC[C@@H](N)CO)cc1 |  | inactive
24 | CCCCCCCCCCCCC/C=C/[C@@H](O)[C@H](CO)N(C)C |  | inactive
25 | CCCCCCCCc1ccc(NC(=O)C(C)(N)CO)cc1 (racemic) | < 5.00 | inactive
26 | CCCCCCCCc1ccc(NC(=O)[C@@H](N)[C@@H](O)CC)cc1 (racemic) |  | inactive
27 | CCCCCCCCc1ccc(NC(=O)[C@H](CO)NC)cc1 |  | inactive
